Experimental data published in patent US12540143B2, “Methods and compositions for targeted protein degradation” (Ranok Therapeutics (Hangzhou) Co. Ltd., priority 2019, dated 2026).

Tested on: MV4-11 cells
Assay: MV4-11 Cytotoxicity Assay
Type: cell-based, human
Conditions: Homo sapiens, MV4-11; 72 hr, CCK-8; read-out: MV4-11 cytotoxicity

Compound	IC50
Cc1sc2c(c1C)C(c1ccc(Cl)cc1)=N[C@@H](CC(=O)N[C@H](C)c1cccc(CN3CCC(Cc4ccc(-n5c(O)nnc5-c5cc(C(C)C)c(O)cc5O)cc4)CC3)c1)c1nnc(C)n1-2 [Compound 81, 2-((S)-4-(4-chlorophenyl)-2,3,9-trimethyl-6H-thieno[3,2-f][1,2,4]triazolo[4,3-a][1,4]diazepin-6-yl)-N—((R)-1-(3-((4-(4-(3-(2,4-dihydroxy-5-isopropylphenyl)-5-hydroxy-4H-1,2,4-triazol-4-yl)benzyl)piperidin-1-yl)methyl)phenyl)ethyl)acetamide, trifluoroacetic acid]	< 100 nM
Cc1sc2c(c1C)C(c1ccc(Cl)cc1)=N[C@@H](CC(=O)N1CCC(Cc3ccc(CN(C)Cc4ccc(-n5c(O)nnc5-c5cc(C(C)C)c(O)cc5O)cc4)cc3)CC1)c1nnc(C)n1-2 [Compound 83, (S)-2-(4-(4-chlorophenyl)-2,3,9-trimethyl-6H-thieno[3,2-f][1,2,4]triazolo[4,3-a][1,4]diazepin-6-yl)-1-(4-(4-(((4-(3-(2,4-dihydroxy-5-isopropylphenyl)-5-hydroxy-4H-1,2,4-triazol-4-yl)benzyl)(methyl)amino)methyl)benzyl)piperidin-1-yl)ethan-1-one, trifluoroacetic acid]	< 100 nM
Cc1sc2c(c1C)C(c1ccc(Cl)cc1)=N[C@@H](CC(=O)N1CCC(CN3CCC(Cc4ccc(-n5c(C(=O)NCC(F)(F)F)nnc5-c5cc(C(C)C)c(O)cc5O)cc4)CC3)CC1)c1nnc(C)n1-2 [Compound 85, (S)-4-(4-((1-((1-(2-(4-(4-chlorophenyl)-2,3,9-trimethyl-6H-thieno[3,2-f][1,2,4]triazolo[4,3-a][1,4]diazepin-6-yl)acetyl)piperidin-4-yl)methyl)piperidin-4-yl)methyl)phenyl)-5-(2,4-dihydroxy-5-isopropylphenyl)-N-(2,2,2-trifluoroethyl)-4H-1,2,4-triazole-3-carboxamide, formic acid]	< 100 nM
CCc1cc(-c2nnc(C(=O)NCC(F)(F)F)n2-c2ccc(CC3CCN(CC4CCN(C(=O)C[C@@H]5N=C(c6ccc(Cl)cc6)c6c(sc(C)c6C)-n6c(C)nnc65)CC4)CC3)cc2)c(O)cc1O [Compound 86, (S)-4-(4-((1-((1-(2-(4-(4-chlorophenyl)-2,3,9-trimethyl-6H-thieno[3,2-f][1,2,4]triazolo[4,3-a][1,4]diazepin-6-yl)acetyl)piperidin-4-yl)methyl)piperidin-4-yl)methyl)phenyl)-5-(5-ethyl-2,4-dihydroxyphenyl)-N-(2,2,2-trifluoroethyl)-4H-1,2,4-triazole-3-carboxamide, trifluoroacetic acid]	< 100 nM
CCNC(=O)c1nnc(-c2cc(CC)c(O)cc2O)n1-c1ccc(CC2CCN(CC3CCN(C(=O)C[C@@H]4N=C(c5ccc(Cl)cc5)c5c(sc(C)c5C)-n5c(C)nnc54)CC3)CC2)cc1 [Compound 87, (S)-4-(4-((1-((1-(2-(4-(4-chlorophenyl)-2,3,9-trimethyl-6H-thieno[3,2-f][1,2,4]triazolo[4,3-a][1,4]diazepin-6-yl)acetyl)piperidin-4-yl)methyl)piperidin-4-yl)methyl)phenyl)-N-ethyl-5-(5-ethyl-2,4-dihydroxyphenyl)-1H-1,2,414-triazole-3-carboxamide, trifluoroacetic acid]	< 100 nM
CCc1cc(-c2nnc(O)n2-c2ccc(CC3CCN(CC4CCN(C(=O)C[C@@H]5N=C(c6ccc(Cl)cc6)c6c(sc(C)c6C)-n6c(C)nnc65)CC4)CC3)cc2)c(O)cc1O [Compound 88, (S)-2-(4-(4-chlorophenyl)-2,3,9-trimethyl-6H-thieno[3,2-f][1,2,4]triazolo[4,3-a][1,4]diazepin-6-yl)-1-(4-((4-(4-(3-(5-ethyl-2,4-dihydroxyphenyl)-5-hydroxy-4H-1,2,4-triazol-4-yl)benzyl)piperidin-1-yl)methyl)piperidin-1-yl)ethan-1-one, formic acid]	< 100 nM
Cc1sc2c(c1C)C(c1ccc(Cl)cc1)=N[C@@H](CC(=O)NCc1ccc(CN3CCC(Cc4ccc(-n5c(O)nnc5-c5cc(C(C)C)c(O)cc5O)cc4)CC3)cc1)c1nnc(C)n1-2 [Compound 89, (S)-2-(4-(4-chlorophenyl)-2,3,9-trimethyl-6H-thieno[3,2-f][1,2,4]triazolo[4,3-a][1,4]diazepin-6-yl)-N-(4-((4-(4-(3-(2,4-dihydroxy-5-isopropylphenyl)-5-hydroxy-4H-1,2,4-triazol-4-yl)benzyl)piperidin-1-yl)methyl)benzyl)acetamide, trifluoroacetic acid]	< 100 nM
CCNC(=O)c1nnc(-c2cc(C(C)C)c(O)cc2O)n1-c1ccc(CC2CCN(CC3CCN(C(=O)C[C@@H]4N=C(c5ccc(Cl)cc5)c5c(sc(C)c5C)-n5c(C)nnc54)CC3)CC2)cc1 [Compound 90, (S)-4-(4-((1-((1-(2-(4-(4-chlorophenyl)-2,3,9-trimethyl-6H-thieno[3,2-f][1,2,4]triazolo[4,3-a][1,4]diazepin-6-yl)acetyl)piperidin-4-yl)methyl)piperidin-4-yl)methyl)phenyl)-5-(2,4-dihydroxy-5-isopropylphenyl)-N-ethyl-4H-1,2,4-triazole-3-carboxamide]	< 100 nM
CCc1cc(-c2nnc(C(=O)NCC(F)(F)F)n2-c2ccc(CC3CCN(Cc4ccc(CNC(=O)C[C@@H]5N=C(c6ccc(Cl)cc6)c6c(sc(C)c6C)-n6c(C)nnc65)cc4)CC3)cc2)c(O)cc1O [Compound 91, (S)-4-(4-((1-(4-((2-(4-(4-chlorophenyl)-2,3,9-trimethyl-6H-thieno[3,2-f][1,2,4]triazolo[4,3-a][1,4]diazepin-6-yl)acetamido)methyl)benzyl)piperidin-4-yl)methyl)phenyl)-5-(5-ethyl-2,4-dihydroxyphenyl)-N-(2,2,2-trifluoroethyl)-4H-1,2,4-triazole-3-carboxamide, trifluoroacetic acid]	< 100 nM
Cc1sc2c(c1C)C(c1ccc(Cl)cc1)=N[C@@H](CC(=O)N(C)[C@H](C)c1ccc(CN3CCN(Cc4ccc(-n5c(O)nnc5-c5cc(C(C)C)c(O)cc5O)cc4)CC3)cc1)c1nnc(C)n1-2 [Compound 92, 2-((S)-4-(4-chlorophenyl)-2,3,9-trimethyl-6H-thieno[3,2-f][1,2,4]triazolo[4,3-a][1,4]diazepin-6-yl)-N—((R)-1-(4-((4-(4-(3-(2,4-dihydroxy-5-isopropylphenyl)-5-hydroxy-4H-1,2,4-triazol-4-yl)benzyl)piperazin-1-yl)methyl)phenyl)ethyl)-N-methylacetamide, trifluoroacetic acid]	100 to 1000 nM
Cc1sc2c(c1C)C(c1ccc(Cl)cc1)=N[C@@H](CC(=O)N(C)[C@H](C)c1ccc(CN3CCC(Cc4ccc(-n5c(O)nnc5-c5cc(C(C)C)c(O)cc5O)cc4)CC3)cc1)c1nnc(C)n1-2 [Compound 93, 2-((S)-4-(4-chlorophenyl)-2,3,9-trimethyl-6H-thieno[3,2-f][1,2,4]triazolo[4,3-a][1,4]diazepin-6-yl)-N—((R)-1-(4-((4-(4-(3-(2,4-dihydroxy-5-isopropylphenyl)-5-hydroxy-4H-1,2,4-triazol-4-yl)benzyl)piperidin-1-yl)methyl)phenyl)ethyl)-N-methylacetamide, trifluoroacetic acid]	< 100 nM
Cc1sc2c(c1C)C(c1ccc(Cl)cc1)=N[C@@H](CC(=O)N1CCC(CN3CCC(Cc4ccc(-n5c(O)nnc5-c5cc(C(C)C)c(O)cc5O)cc4)CC3)CC1)c1nnc(C)n1-2 [Compound 94, (S)-2-(4-(4-chlorophenyl)-2,3,9-trimethyl-6H-thieno[3,2-f][1,2,4]triazolo[4,3-a][1,4]diazepin-6-yl)-1-(4-((4-(4-(3-(2,4-dihydroxy-5-isopropylphenyl)-5-hydroxy-4H-1,2,4-triazol-4-yl)benzyl)piperidin-1-yl)methyl)piperidin-1-yl)ethan-1-one, trifluoroacetic acid]	< 100 nM
Cc1sc2c(c1C)C(c1ccc(Cl)cc1)=N[C@@H](CC(=O)NCCc1ccc(CN3CCC(Cc4ccc(-n5c(C(=O)NCC(F)(F)F)nnc5-c5cc(C(C)C)c(O)cc5O)cc4)CC3)cc1)c1nnc(C)n1-2 [Compound 95, (S)-4-(4-((1-(4-(2-(2-(4-(4-chlorophenyl)-2,3,9-trimethyl-6H-thieno[3,2-f][1,2,4]triazolo[4,3-a][1,4]diazepin-6-yl)acetamido)ethyl)benzyl)piperidin-4-yl)methyl)phenyl)-5-(2,4-dihydroxy-5-isopropylphenyl)-N-(2,2,2-trifluoroethyl)-4H-1,2,4-triazole-3-carboxamide, trifluoroacetic acid]	< 100 nM
Cc1sc2c(c1C)C(c1ccc(Cl)cc1)=N[C@@H](CC(=O)NCc1ccc(CN3CCC(Cc4ccc(-n5c(C(=O)NCC(F)(F)F)nnc5-c5cc(C(C)C)c(O)cc5O)cc4)CC3)cc1)c1nnc(C)n1-2 [Compound 96, (S)-4-(4-((1-(4-((2-(4-(4-chlorophenyl)-2,3,9-trimethyl-6H-thieno[3,2-f][1,2,4]triazolo[4,3-a][1,4]diazepin-6-yl)acetamido)methyl)benzyl)piperidin-4-yl)methyl)phenyl)-5-(2,4-dihydroxy-5-isopropylphenyl)-N-(2,2,2-trifluoroethyl)-4H-1,2,4-triazole-3-carboxamide, trifluoroacetic acid]	< 100 nM
Cc1sc2c(c1C)C(c1ccc(Cl)cc1)=N[C@@H](CC(=O)N[C@H](C)c1cccc(CN3CCC(Cc4ccc(-n5c(C(=O)NCC(F)(F)F)nnc5-c5cc(C(C)C)c(O)cc5O)cc4)CC3)c1)c1nnc(C)n1-2 [Compound 97, 4-(4-((1-(3-((R)-1-(2-((S)-4-(4-chlorophenyl)-2,3,9-trimethyl-6H-thieno[3,2-f][1,2,4]triazolo[4,3-a][1,4]diazepin-6-yl)acetamido)ethyl)benzyl)piperidin-4-yl)methyl)phenyl)-5-(2,4-dihydroxy-5-isopropylphenyl)-N-(2,2,2-trifluoroethyl)-4H-1,2,4-triazole-3-carboxamide, trifluoroacetic acid]	< 100 nM
Cc1sc2c(c1C)C(c1ccc(Cl)cc1)=N[C@@H](CC(=O)NCCc1ccc(CN3CCC(Cc4ccc(-n5c(O)nnc5-c5cc(C(C)C)c(O)cc5O)cc4)CC3)cc1)c1nnc(C)n1-2 [Compound 98, (S)-2-(4-(4-chlorophenyl)-2,3,9-trimethyl-6H-thieno[3,2-f][1,2,4]triazolo[4,3-a][1,4]diazepin-6-yl)-N-(4-((4-(4-(3-(2,4-dihydroxy-5-isopropylphenyl)-5-hydroxy-4H-1,2,4-triazol-4-yl)benzyl)piperidin-1-yl)methyl)phenethyl)acetamide, trifluoroacetic acid]	< 100 nM
